This note sets out measurements from patent publication US9399070B2, “Compositions comprising a polymeric reagent and a pharmacologically active agent” (Nektar Therapeutics, priority 2003, dated 2016).

For one series, the system named is NB2-11 cells. Kind of series: NB2-11 rat lymphoma cell proliferation assay. The settings on record: in vitro; based on determined protein content; unmodified hGH = 100% bioactivity; preliminary. How it is done:
The biological activity of hGH and the conjugates described in Table 1 was assessed in vitro using an NB2-11 rat lymphoma cell proliferation assay. Briefly, NB2-11 cells derived from a rat lymphoma were incubated with hGH, which leads to binding of the hGH molecule to its receptor on the cell surface. Receptor binding induces the signal transduction cascade, which results in proliferation of the cells. Assay results were based on determined protein content, and a 100% bioactivity of unmodified hGH.

In another series the test system is hypophysectomized rat. Description: in vivo bioassay, weight gain in hypophysectomized rat (USP monograph for Somatotropin). The settings on record: for increase of weight (day 8): single high dose of 110 μg on day 1, day 8. The protocol:
Conjugates 1M and 1D were further evaluated in a preliminary in vivo bioassay (hypophysectomized rat, USP monograph for Somatotropin®). Six groups of each of five animals received either hGH, 1M, 1D, or placebo in different dosing regimes. Weight gain as a pharmacodynamic output was measured on day 1, 3, 6, and 8.
The results of the experiment are summarized in FIG. 4 (weight gain following day 8) and FIG. 5 (weight gain over time course of study). […] Daily dosing of 5 μg of the hGH standard induced an overall weight gain of 4% on day 8, whereas the single high dose of 110 μg of 1M and ID produced an increase of weight of 7% and 9% respectively (FIG. 4).

di(mPEG-2-ButyrALD-40k) hGH [Sample 4D]: the “Activity, %” value with NB2-11 cells was found to be 0.2%.

Turning to di(mPEG-2-NHS-40k) hGH [Sample 1D], the “animal death in study group” value in the series with hypophysectomized rat (1D bolus group, single dose 110 μg, five animals per group) was “death of one animal”. Also, the “increase of weight (day 8)” value in the series with hypophysectomized rat was found to be 9%. For the same substance, the “Activity, %” value in the series on NB2-11 cells was found to be 0.4%.

“hGH: Native, recombinant human growth hormone, unmodified”: the “overall weight gain on day 8” value in the series with hypophysectomized rat (daily dosing of 5 μg (cumulative 35 μg), day 8) was 4%. Further, the “weight gain during the eight days” value in the series on hypophysectomized rat (single high dose (110 μg, day 1)) is listed as “no or moderate weight gain”.

As for “mono(mPEG-2-ButyrALD-40k) hGH [Sample 4M]”, the “Activity, %” value with NB2-11 cells came to 2.5%.

In the case of mono(mPEG-2-NHS-40k) hGH [Sample 1M], the “increase of weight (day 8)” value in the series with hypophysectomized rat is 7%.
